# Several values for one entry are separate records, joined by “and”; a condition that tells them apart may be missing. Identical values can stand only once.
# Legend:
# Hep-G2 (hepatic cancer) = experiment: Cytotoxicity test with sulphorhodamine B, Hep-G2 line; type: cell-based; settings: for fold higher activity than AddFU: Hep-G2, ratio of IC50; for IC50: Homo sapiens, HepG2, 72 hours incubation, average of three independent determinations, read-out: Cytotoxic activity IC50 Hep-G2 (hepatic cancer)
# Source text: The values are average results of three independent determinations.
# MCF-7 (breast cancer) [1] = settings: for Cytotoxic activity IC50 MCF-7 line (breast cancer): human, 72 h
# Procedure: (§1) Cytotoxicity tests were carried out using a standard procedure with sulphorhodamine B. They involved incubation of the cancer cell lines in the logarithmic growth phase for 72 hours with the compound tested and, subsequently, spectrophotometric determination of the degree of cell growth inhibition using adsorption of a dye (sulphorhodamine B) which binds cellular proteins.
# (§2) Cells of the cell line tested in the logarithmic growth phase were seeded onto 24-well plates in a quantity of 20,000 cells/2 mL of the growth medium per well and, subsequently, incubated in an incubator at 37° C., in the 5% CO2 atmosphere for 24 hours.
# (§3) Solutions of the test compounds were prepared in DMSO in the following concentration range: 0.05; 0.1; 0.5; 1; 5; 10; 50; 100; 500 μM.
# (§4) The cells of the lines tested were treated with the solutions of the test compounds in a laminar-flow chamber which ensured sterile working conditions according to the following procedure: the first three wells were used as a blank: they contained 20 μL of DMSO only; successive solutions of the test compound were added to subsequent wells (20 μL), starting with the lowest concentration (three wells for each concentration level). Subsequently, the plates were placed in an incubator for 72 hours.
# (§5) After the end of incubation, the adhered cells were fixed by adding 500 μL of cold (4° C. 50% trichloroacetic acid (TCA) and incubated at 4° C. for 1 hour. Subsequently, each well was rinsed with sterile water and dried. The operation was repeated five times. The fixed cells were stained for 30 minutes by adding 500 μL of 0.4% of a dye solution (sulphorhodamine B) dissolved in 1% acetic acid. Any unbound dye was removed by decanting it from the plate, and the cells were washed 4 times with 1% acetic acid. Subsequently, the plates were dried in air for approx. 5 minutes. Any unbound dye was dissolved by adding 1500 μL of 10 mM Tris-base buffer (trishydroxymethylaminomethane) to each well and shaken using an orbital shaker for 5 minutes. Subsequently, 200 μL of solution from each well was transferred to each of two wells on a new 96-well plate and absorption of the solutions was determined spectrophotometrically at a wavelength of 490-530 nm using a plate reader. Percentage inhibition of cell growth by the test compound was calculated assuming the absorption of the control solution as 100%.
# (§6) Depending on the type of the cell line, the following growth media were used: • the MCF-7 line was grown in Dulbecco's Modified Eagle's Medium (DME) from Sigma (cat. no. D5796), • the HeLa and Hep-G2 lines were grown in PPMI-1640 Medium from Sigma (cat. no. R8758).
# HeLa (cervical cancer) [2] = experiment: Cytotoxicity test with sulphorhodamine B, HeLa line; settings: for IC50: Homo sapiens, 72 h, read-out: Cytotoxic activity IC50 HeLa (cervical cancer), 72 hours incubation, average of three independent determinations
# Procedure: as §1, §2, §3, §4, §5, §6
# MCF-7 (breast cancer) [3] = experiment: Cytotoxicity test with sulphorhodamine B, MCF-7 line; settings: for IC50: Homo sapiens, MCF7, 72 h, read-out: Cytotoxic activity IC50 MCF-7 line (breast cancer), 72 hours incubation, average of three independent determinations
# Procedure: as §1, §2, §3, §4, §5, §6
# HeLa (cervical cancer) [4] = settings: for Cytotoxic activity IC50 HeLa (cervical cancer): human, 72 h
# Procedure: as §1, §2, §3, §4, §5, §6
# [5] = system: L1210 cancer in mice induced by MLV retroviruses; settings: literature (Colla et al. 1985); cited from earlier work
# sarcoma 180 = settings: literature (Lin et al. 1983); cited from earlier work
SMILES,fold higher activity than AddFU (Hep-G2 (hepatic cancer)),IC50 (Hep-G2 (hepatic cancer)),IC50 (HeLa (cervical cancer) [2]),IC50 (MCF-7 (breast cancer) [3]),"cytotoxic activity in words, cervical cancer cells (HeLa line) (HeLa (cervical cancer) [4])",further results
"C=CC1C[N@@]2CCC1C[C@@H]2[C@@H](OCc1cn(C2CC(n3cc(F)c(=O)[nH]c3=O)OC2CO)nn1)c1ccnc2ccc(OC)cc12 (stereo partly drawn) [PQD5FdU, 5-Fluoro-1-(5-hydroxymethyl-4-{4-[(6-methoxyquinolin-4-yl)-(5-vinyl-1-aza-bicyclo[2.2.2]oct-2-yl)-methoxymethyl]-[1,2,3]triazol-1-yl}-tetrahydrofuran-2-yl)-1H-pyrimidine-2,4-dione]",more than twice as high,6 µg/mL and 9.47 µM,2.8 µg/mL and 4.42 µM,2.9 µg/mL and 4.58 µM,–,"cytotoxic activity in words, breast cancer cells (MCF-7 (breast cancer) [1]): medium active"
"O=c1[nH]c(=O)n([C@H]2C[C@H](O)[C@@H](CO)O2)cc1F [5-fluoro-2′-deoxyuridine, reference compound]",–,–,3.2 µg/mL and 13 µM,2.81 µg/mL and 11.4 µM,–,–
"O=c1[nH]c(=O)n(C2CC(n3cc(C4CN5CCC4C[C@@H]5[C@@H](O)c4ccnc5ccccc45)nn3)C(CO)O2)cc1F (stereo partly drawn) [CN5FdU, 5-Fluoro-1-(5-hydroxymethyl-4-{4-[6-(hydroxy-quinolin-4-yl-methyl)-1-aza-bicyclo[2.2.2]oct-3-yl]-[1,2,3]triazol-1-yl}-tetrahydro-furan-2-yl)-1H-pyrimidine-2,4-dione]",–,–,7.9 µg/mL and 14 µM,7 µg/mL and 12.4 µM,medium active,–
"COc1ccc2nccc(C(O)[C@@H]3CC4CCN3CC4c3cn(C4CC(n5cc(F)c(=O)[nH]c5=O)OC4CO)nn3)c2c1 (stereo partly drawn) [QN5FdU, 5-Fluoro-1-[4-(4-{6-[hydroxy-(6-methoxyquinolin-4-yl)-methyl]-1-aza-bicyclo[2.2.2]oct-3-yl}-[1,2,3]triazol-1-yl)-5-hydroxymethyl-tetrahydro-furan-2-yl]-1H-pyrimidine-2,4-dione]",4 fold,3.8 µg/mL and 6.4 µM,0.16 µg/mL and 270 nM,0.16 µg/mL and 270 nM,–,"fold higher activity than 5FdU (HeLa (cervical cancer) [2]; ratio of IC50): more than 20 fold; fold higher activity than AddFU (HeLa (cervical cancer) [2]; ratio of IC50): more than 18 fold; fold higher activity than 5FdU (MCF-7 (breast cancer) [3]; MCF-7, ratio of IC50): more than 17.5 fold; fold higher activity than AddFU (MCF-7 (breast cancer) [3]; MCF-7, ratio of IC50): more than 13 fold"
"C=CC1C[N@@]2CCC1C[C@@H]2C(OCc1cn(C2CC(n3cc(F)c(=O)[nH]c3=O)OC2CO)nn1)c1ccnc2ccccc12 (stereo partly drawn) [PCN5FdU, 5-Fluoro-1-(5-hydroxymethyl-4-{4-[quinolin-4-yl-(5-vinyl-1-aza-bicyclo[2.2.2]oct-2-yl)-methoxymethyl]-[1,2,3]triazol-1-yl}-tetrahydrofuran-2-yl)-1H-pyrimidine-2,4-dione]",–,–,27.6 µg/mL and 45.7 µM,27.2 µg/mL and 45.1 µM,medium active,–
"C=CC1C[N@@]2CCC1C[C@H]2[C@H](OCc1cn(C2CC(n3cc(F)c(=O)[nH]c3=O)OC2CO)nn1)c1ccnc2ccc(OC)cc12 (stereo partly drawn) [PQN5FdU, 5-Fluoro-1-(5-hydroxymethyl-4-{4-[(6-methoxyquinolin-4-yl)-(5-vinyl-1-aza-bicyclo[2.2.2]oct-2-yl)-methoxymethyl]-[1,2,3]triazol-1-yl}-tetrahydrofuran-2-yl)-1H-pyrimidine-2,4-dione]",more than twice as high,6.2 µg/mL and 9.78 µM,1.6 µg/mL to 2.8 µg/mL and 3.16 µM,0.98 µg/mL to 1.5 µg/mL and 2.37 µM,–,Cytotoxic activity IC50 MCF-7 line (breast cancer) (MCF-7 (breast cancer) [1]): 1.5 µg/mL; Cytotoxic activity IC50 HeLa (cervical cancer) (HeLa (cervical cancer) [4]): 2.0 µg/mL
"COc1ccc2nccc([C@H](O)[C@H]3CC4CC[N@]3CC4c3cn(C4CC(n5cc(F)c(=O)[nH]c5=O)OC4CO)nn3)c2c1 (stereo partly drawn) [QD5FdU, 5-Fluoro-1-[4-(4-{6-[hydroxy-(6-methoxyquinolin-4-yl)-methyl]-1-aza-bicyclo[2.2.2]oct-3-yl}-[1,2,3]triazol-1-yl)-5-hydroxymethyl-tetrahydro-furan-2-yl]-1H-pyrimidine-2,4-dione]",–,–,1.6 µg/mL to 2.8 µg/mL and 2.7 µM,0.98 µg/mL to 1.5 µg/mL and 1.65 µM,–,Cytotoxic activity IC50 MCF-7 line (breast cancer) (MCF-7 (breast cancer) [1]): 0.98 µg/mL; Cytotoxic activity IC50 HeLa (cervical cancer) (HeLa (cervical cancer) [4]): 1.6 µg/mL
"O=c1[nH]c(=O)n(C2CC(n3cc(C4CN5CCC4C[C@H]5[C@H](O)c4ccnc5ccccc45)nn3)C(CO)O2)cc1F (stereo partly drawn) [CD5FdU, 5-Fluoro-1-(5-hydroxymethyl-4-{4-[6-(hydroxy-quinolin-4-yl-methyl)-1-aza-bicyclo[2.2.2]oct-3-yl]-[1,2,3]triazol-1-yl}-tetrahydro-furan-2-yl)-1H-pyrimidine-2,4-dione]",–,–,7 µg/mL and 12.4 µM,6.9 µg/mL and 12.2 µM,medium active,–
"[N-]=[N+]=N[C@H]1C[C@H](n2cc(F)c(=O)[nH]c2=O)O[C@@H]1CO [3′-azido-2′,3′-dideoxy-5-fluorouridine, reference compound]",–,16 µg/mL and 59 µM,3 µg/mL and 11.1 µM,2.2 µg/mL and 8.11 µM,–,"IC50 against L1210 cancer [5]: 34 µg/mL; activity against sarcoma 180 in vitro, in words (sarcoma 180): weak activity"
"C=CC1C[N@@]2CCC1C[C@H]2[C@H](OCc1cn(C2CC(n3cc(F)c(=O)[nH]c3=O)OC2CO)nn1)c1ccnc2ccccc12 (stereo partly drawn) [PCD5FdU, 5-Fluoro-1-(5-hydroxymethyl-4-{4-[quinolin-4-yl-(5-vinyl-1-aza-bicyclo[2.2.2]oct-2-yl)-methoxymethyl]-[1,2,3]triazol-1-yl}-tetrahydrofuran-2-yl)-1H-pyrimidine-2,4-dione]",–,–,21.4 µg/mL and 35.5 µM,13 µg/mL and 21.5 µM,medium active,–

# Source: patent US9388209B2, “2′, 3′-dideoxy-5-fluorouridine derivatives, a process for the manufacture thereof and application thereof” (ADAM MICKIEWICZ UNIVERSITY, priority 2014, dated 2016)
